Assay results: patent US7067537B2, “Substituted thiazole derivatives bearing 3-pyridyl groups, process for preparing the same and use thereof” (Takeda Pharmaceutical Company Limited, priority 2000, dated 2006)
Where a name gives a salt, the structure may show the parent alone.

Key:
[1] = target: T1, Rat C17,20-lyase (Rattus norvegicus, UniProt P11715); experiment: Assay of steroid C17,20-lyase-inhibitory activity in rat (testis microsome, TLC of 3H-labelled products); format: biochemical; details: microsome from orchis of 13-week-old male SD rat; [1.2-3H]-17α-hydroxyprogesterone 10 nM, NADPH; pH 7.4; 37° C., 7 min; read-out: In vitro enzyme inhibitory activity (IC50) Rat C17,20-lyase
T1 construct: The orchis was homogenized and centrifuged to prepare a microsome; from tissue; host or cells: testis (orchis) microsomes of 13-week-old male SD rat
T1 sequence (P11715 1-507): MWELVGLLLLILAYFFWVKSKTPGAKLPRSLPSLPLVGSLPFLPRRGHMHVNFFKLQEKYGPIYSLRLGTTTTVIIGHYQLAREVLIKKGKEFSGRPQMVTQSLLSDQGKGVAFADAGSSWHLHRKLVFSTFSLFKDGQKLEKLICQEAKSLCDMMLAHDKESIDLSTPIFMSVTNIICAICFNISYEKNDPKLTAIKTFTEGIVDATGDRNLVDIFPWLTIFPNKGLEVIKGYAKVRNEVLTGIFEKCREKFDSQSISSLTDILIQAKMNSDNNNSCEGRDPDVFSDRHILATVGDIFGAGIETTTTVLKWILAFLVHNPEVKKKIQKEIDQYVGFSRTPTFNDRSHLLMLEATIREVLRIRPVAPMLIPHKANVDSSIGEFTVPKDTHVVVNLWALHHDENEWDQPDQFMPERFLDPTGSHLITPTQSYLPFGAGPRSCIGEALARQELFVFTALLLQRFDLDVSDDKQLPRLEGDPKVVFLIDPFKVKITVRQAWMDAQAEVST
Experimental: Assay of Steroid C17,20-lyase-inhibitory Activity in Rat
The assay was performed according to The Prostate, Vol. 26, 140–150 (1995). The orchis was removed from 13-week-old male SD rat. The orchis was homogenized and centrifuged to prepare a microsome. The [1.2-^3H]-17α-hydroxyprogesterone having a final concentration of 10 nM, NADPH solution and the test compound were was dissolved in a 100 mM phosphate buffer solution (10 μl, pH 7.4). Microsome protein (7 μg/10 μl) was added and the mixture was incubated at 37° C. for 7 min. Ethyl acetate (40 μl) was added and the mixture was centrifuged, and the substrate and the product (androstenedione and testosterone) in the supernatant were separated by silica gel thin layer chromatography (TLC). The spot was detected and quantitatively assayed by a BAS 2000 bioimage analyzer. Taking the production amount when the test compound was not added (control) as 100%, the concentration (IC50) of the compound necessary for 50% inhibition of the product amount relative to the control was calculated.

Cc1ccncc1-c1nc(-c2ccc(Cl)cc2)c(Cl)s1 [Compound 150, 3-[5-chloro-4-(4-chlorophenyl)-1,3-thiazol-2-yl]-4-methylpyridine]
melting point: 146 °C

COc1ccc(-c2csc(-c3cnccc3C(F)(F)F)n2)cc1 (as salt: HCl) [Compound 64]
melting point: 93 to 95 °C

CS(=O)(=O)Nc1ccc(-c2csc(-c3cnccc3C(F)(F)F)n2)cc1.Cl
melting point: 205 to 207 °C

CNC(=O)c1ccc(C)c(-c2nc(-c3cnccc3C)cs2)c1 [Example 30, N, 4-dimethyl-3-[4-(4-methylpyridin-3-yl)-1,3-thiazol-2-yl]benzamide]
melting point: 140 to 143 °C

Cc1ccc(-c2csc(-c3cnccc3C)n2)cc1 [Compound 103]
IC50 [1]: < 10 nM | melting point: 98 °C

Cc1ccncc1-c1csc(-c2cc(NC=O)ccc2C)n1 [Example 37, 4-methyl-3-[4-(4-methylpyridin-3-yl)-1,3-thiazol-2-yl]phenylformamide]
melting point: 127 to 129 °C

CC(C)(O)c1ccncc1-c1nc(-c2ccc(Cl)cc2)cs1 [Compound 145, 2-{3-[4-(4-chlorophenyl)-1,3-thiazol-2-yl]pyridin-4-yl}propan-2-ol]
melting point: 146 °C

Cc1ccncc1-c1csc(-c2cccc(C(=O)N(C)C)c2)n1 [Example 27, N,N-dimethyl-3-[4-(4-methylpyridin-3-yl)-1,3-thiazol-2-yl]benzamide]
melting point: 106 to 108 °C

Cc1ccc(-c2nc(-c3cnccc3C)sc2F)cc1 [Compound 153, 3-[5-fluoro-4-(4-methylphenyl)-1,3-thiazol-2-yl]-4-methylpyridine]
melting point: 96 °C

CC(=O)Nc1ccc(C)c(-c2nc(-c3cnccc3C)cs2)c1 [Example 38, N-{4-methyl-3-[4-(4-methylpyridin-3-yl)-1,3-thiazol-2-yl]phenyl}acetamide]
melting point: 151 to 152 °C

Cc1ccncc1-c1csc(-c2ccc(F)cc2)n1 (as salt: HCl) [Compound 137, 3-[2-(4-fluorophenyl)-1,3-thiazol-4-yl]-4-methylpyridine]
melting point: 180 to 183 °C

Cc1ccncc1-c1csc(-c2cc(C(=O)N(C)C)ccc2C)n1 [Example 31, N,N,4-trimethyl-3-[4-(4-methylpyridin-3-yl)-1,3-thiazol-2-yl]benzamide]
melting point: 180 to 182 °C

Cc1ccncc1-c1csc(-c2ccc(C(N)=O)cc2)n1 [Example 28, 4-[4-(4-methylpyridin-3-yl)-1,3-thiazol-2-yl]benzamide]
melting point: 155 to 157 °C

Cc1ccncc1-c1csc(-c2cc(C(=O)N3CCCC3)ccc2C)n1 [Example 32, 4-methyl-3-{2-[2-methyl-5-(pyrrolidine-1-ylcarbonyl)phenyl]-1,3-thiazol-4-yl}pyridine]
melting point: 149 to 150 °C

COc1cccc(-c2csc(-c3cccnc3)n2)c1 (as salt: HBr) [Compound 49]
melting point: 231 to 233 °C

Fc1ccc(-c2nc(-c3cccnc3)cs2)cc1 [Compound 136]
IC50 [1]: 14 nM

CNC(=O)c1ccc(F)c(-c2nc(-c3cnccc3C)cs2)c1 [Example 33, 4-fluoro-N-methyl-3-[4-(4-methylpyridin-3-yl)-1,3-thiazol-2-yl]benzamide]
melting point: 195 to 196 °C

CNC(=O)c1ccc(-c2nc(-c3cnccc3C)cs2)cc1 [Example 29, N-methyl-4-[4-(4-methylpyridin-3-yl)-1,3-thiazol-2-yl]benzamide]
melting point: 115 °C

Fc1ccc(-c2nc(-c3cccnc3)cs2)cc1 (as salt: HBr) [Compound 136]
melting point: 225 to 227 °C

CNC(=O)c1ccncc1-c1nc(-c2ccc(Cl)cc2)cs1 [Compound 148]
melting point: 205 °C

CC(=O)Nc1ccc(-c2nc(-c3cnccc3C)cs2)cc1 [Example 36, N-{4-[4-(4-methylpyridin-3-yl)-1,3-thiazol-2-yl]phenyl}acetamide]
melting point: 205 to 207 °C

Cc1ccncc1-c1nc(-c2ccc(C(=O)O)cc2)cs1 [Compound 163, 4-[2-(4-methylpyridin-3-yl)-1,3-thiazol-4-yl]benzoic acid]
melting point: > 300 °C

Cc1ccncc1-c1nc(-c2ccc(Cl)cc2)cs1 [Compound 74, 3-[4-(4-chlorophenyl)-1,3-thiazol-2-yl]-4-methylpyridine]
melting point: 119 °C

FC(F)(F)c1ccncc1-c1nc(-c2ccc(Br)cc2)cs1 [Compound 53]
IC50 [1]: < 10 nM | melting point: 69 to 71 °C

COc1ccc(-c2csc(-c3cnccc3C(F)(F)F)n2)cc1 [Compound 64]
IC50 [1]: < 10 nM

CNC(=O)c1cc(-c2nc(-c3cnccc3C)cs2)ccc1Cl [Example 34, 2-chloro-N-methyl-5-[4-(4-methylpyridin-3-yl)-1,3-thiazol-2-yl]benzamide]
melting point: 127 to 129 °C

COc1cccc(-c2csc(-c3cccnc3)n2)c1 [Compound 49]
IC50 [1]: 33 nM

Cc1ccncc1-c1nc(-c2ccc(S(N)(=O)=O)cc2)cs1 [Compound 154, 4-[2-(4-methylpyridin-3-yl)-1,3-thiazol-4-yl]benzenesulfonamide]
melting point: 219 °C

NC(=O)c1ccncc1-c1nc(-c2ccc(Cl)cc2)cs1 [Compound 147]
melting point: 201 °C

Cc1ccncc1-c1csc(-c2ccc(S(N)(=O)=O)cc2)n1 [Compound 135, 4-[4-(4-methyl-pyridin-3-yl)-1,3-thiazol-2-yl]benzenesulfonamide]
melting point: 192 to 195 °C

COc1ccncc1-c1nc(-c2ccc(C)cc2C)cs1 [Compound 85]
IC50 [1]: 30 nM

Cc1ccncc1-c1nc(-c2ccc(C(N)=O)cc2)cs1 [Compound 165, 4-[2-(4-methylpyridin-3-yl)-1,3-thiazol-4-yl]benzamide]
melting point: 222 to 225 °C

NC(=O)CNc1ccncc1-c1nc(-c2ccc(Cl)cc2)cs1 [Compound 144]
melting point: 202 °C

CC(=O)Nc1cccc(-c2csc(-c3cnccc3C(F)(F)F)n2)c1.Cl
melting point: 154 to 155 °C

Nc1ccc(-c2csc(-c3cnccc3C(F)(F)F)n2)cc1 [Compound 156, 4-{2-[4-(trifluoromethyl)pyridin-3-yl]-1,3-thiazol-4-yl}aniline]
melting point: 71 to 72 °C

CN(C)C(=O)c1ccncc1-c1nc(-c2ccc(Cl)cc2)cs1 [Compound 146, 3-[4-(4-chlorophenyl)-1,3-thiazol-2-yl]-N,N-dimethylisonicotinamide]
melting point: 195 °C

NC(=O)c1ccc(-c2csc(-c3cnccc3C(F)(F)F)n2)cc1 [Compound 164, 4-{2-[4-(trifluoromethyl)pyridin-3-yl]-1,3-thiazol-4-yl}benzamide]
melting point: 192 to 193 °C

Cc1ccncc1-c1nc(-c2ccc(F)cc2)cs1 [Compound 78, 3-[4-(4-fluorophenyl)-1,3-thiazol-2-yl]-4-methylpyridine]
IC50 [1]: < 10 nM | melting point: 129 °C

NS(=O)(=O)c1ccc(-c2csc(-c3cnccc3C(F)(F)F)n2)cc1 [Compound 155, 4-{2-[4-(trifluoromethyl)pyridin-3-yl]-1,3-thiazol-4-yl}benzenesulfonamide]
melting point: 217 °C

COc1ccncc1-c1nc(-c2ccc(C)cc2C)cs1 (as salt: HCl) [Compound 85]
melting point: 154 °C

CS(=O)(=O)Nc1cccc(-c2csc(-c3cnccc3C(F)(F)F)n2)c1 (as salt: hydrochloride) [Compound 161, N-(3-{2-[4-(trifluoromethyl)pyridin-3-yl]-1,3-thiazol-4-yl}phenyl)methanesulfonamide]
melting point: 162 to 165 °C
